# Source: ChEMBL document CHEMBL1136455, “The synthesis and antibacterial activity of 1,3,4-thiadiazole phenyl oxazolidinone analogues” (Bioorg Med Chem Lett, 2003)
# What was measured:
# Assay type in all cases: functional
# [1] = test system: Haemophilus influenzae; assay: In vitro antibacterial activity against ampicillin resistant Haemophilus influenzae 30063 (B-lactamase +)
# [2] = test system: Staphylococcus aureus; assay: In vitro antibacterial activity against methicillin susceptible Staphylococcus aureus UC 9213 (MSSA)
# [3] = test system: Enterococcus faecalis; assay: In vitro antibacterial activity against vancomycin resistant Enterococcus faecalis UC 9217 (VREA)
# [4] = test system: Staphylococcus epidermidis; assay: In vitro antibacterial activity against methicillin resistant Staphylococcus epidermidis UC 12084
# [5] = test system: Moraxella catarrhalis; assay: In vitro antibacterial activity against Moraxella catarrhalis 30607
# [6] = test system: Streptococcus pneumoniae; assay: In vitro antibacterial activity against penicillin sensitive Streptococcus pneumoniae UC 9912
# [7] = test system: Staphylococcus aureus; assay: In vitro antibacterial activity against methicillin resistant Staphylococcus aureus UC 12673 (MRSA)
# [8] = test system: Mus musculus; assay: In vivo efficacy to protect the Staphylococcus aureus infected mouse and the activity was reported using Linezolid as a control with ED50 = 5
# [9] = test system: Mus musculus; assay: In vivo efficacy to protect the Staphylococcus aureus infected mouse and the activity was reported using Linezolid as a control with ED50 = 5.6
# [10] = test system: Mus musculus; assay: In vivo efficacy to protect the Staphylococcus aureus infected mouse and the activity was reported using Linezolid as a control with ED50 = 2.2
# [11] = test system: Mus musculus; assay: In vivo efficacy to protect the Staphylococcus aureus infected mouse and the activity was reported using Linezolid as a control with ED50 = 3.8
# [12] = test system: Mus musculus; assay: In vivo efficacy to protect the Staphylococcus aureus infected mouse and the activity was reported using Linezolid as a control with ED50 = 3.1
# [13] = test system: Mus musculus; assay: In vivo efficacy to protect the Staphylococcus aureus infected mouse and the activity was reported using Linezolid as a control with ED50 = 3.7
# [14] = test system: Mus musculus; assay: In vivo efficacy to protect the Staphylococcus aureus infected mouse and the activity was reported using Linezolid as a control with ED50 =4
# [15] = test system: Mus musculus; assay: In vivo efficacy to protect the Staphylococcus aureus infected mouse and the activity was reported using Linezolid as a control with ED50 = 4.3
SMILES,MIC [1] [mg/L],MIC [2] [mg/L],MIC [3] [mg/L],MIC [4] [mg/L],MIC [5] [mg/L],MIC [6] [mg/L],MIC [7] [mg/L],ED50 [8] [mg/kg],ED50 [9] [mg/kg],ED50 [10] [mg/kg],ED50 [11] [mg/kg],ED50 [12] [mg/kg],ED50 [13] [mg/kg],ED50 [14] [mg/kg],ED50 [15] [mg/kg]
CC(=O)NC[C@H]1CN(c2ccc(-c3nnc(CS(C)(=O)=O)s3)c(F)c2)C(=O)O1,4,4,2,1,4,< 0.5,4,–,–,–,–,–,–,–,–
C/C(S)=N/C[C@H]1CN(c2ccc(-c3nnc(CS(C)(=O)=O)s3)c(F)c2)C(=O)O1,2,0.25,0.25,0.25,0.5,0.06,0.5,> 20,–,–,–,–,–,–,–
C/C(S)=N/C[C@H]1CN(c2ccc(-c3nncs3)c(F)c2)C(=O)O1,1,0.25,0.125,< 0.125,0.25,< 0.125,< 0.125,–,> 20,–,–,–,–,–,–
COCc1nnc(-c2ccc(N3C[C@H](CNC(C)=O)OC3=O)cc2F)s1,8,2,1,4,4,0.25,1,–,–,5.8,–,–,–,–,–
CCOC(=O)c1nnc(-c2ccc(N3C[C@H](CNC(C)=O)OC3=O)cc2F)s1,> 16,8,8,2,16,< 0.125,8,–,–,–,–,–,–,–,–
CC(=O)NC[C@H]1CN(c2ccc(-c3nnc(O)s3)c(F)c2)C(=O)O1,4,1,1,0.5,4,0.125,1,–,–,–,13,–,–,–,–
CC(=O)NC[C@H]1CN(c2ccc(-c3nnc(CC/C(C)=N/O)s3)c(F)c2)C(=O)O1,4,2,1,0.5,4,< 0.125,2,> 20,–,–,–,–,–,–,–
CC(=O)NC[C@H]1CN(c2ccc(-c3nnc(CO)s3)c(F)c2)C(=O)O1,4,1,1,0.25,2,< 0.125,1,–,–,–,–,8.7,–,–,–
CC(=O)NC[C@H]1CN(c2ccc(-c3nnc(COC(C)=O)s3)c(F)c2)C(=O)O1,4,1,1,0.25,2,< 0.125,1,–,–,–,–,–,18.5,–,–
CC(=O)NC[C@H]1CN(c2ccc(-c3nnc(CF)s3)c(F)c2)C(=O)O1,4,1,1,0.25,2,0.25,1,–,–,–,–,–,–,8.6,–
CSCc1nnc(-c2ccc(N3C[C@H](CNC(C)=O)OC3=O)cc2F)s1,> 16,1,1,0.25,4,0.25,1,–,–,–,–,–,–,–,–
CNCc1nnc(-c2ccc(N3C[C@H](C/N=C(/C)S)OC3=O)cc2F)s1,< 0.5,< 0.5,< 0.5,< 0.5,< 0.5,< 0.5,–,–,–,–,–,–,–,–,> 20
